Measured values taken from ChEMBL document CHEMBL1123742, “Isozyme-specific enzyme inhibitors. 13. S-[5'(R)-[(N-triphosphoamino)methyl]adenosyl]-L-homocysteine, a potent inhibitor of rat methionine adenosyltransferases” (J Med Chem, 1987).

What was measured:
Type in all cases: protein assay
[1] = target: T1, S-adenosylmethionine synthetase (MAT 1 and MAT 2) (Rattus norvegicus, UniProt P13444+P18298); test: Inhibition constant of compound with Novikoff ascitic hepatoma (M-T) form of rat methionine adenosyltransferase when ATP was used as variable substrate;Competitive type of inhibition
[2] = target: T1, S-adenosylmethionine synthetase (MAT 1 and MAT 2); test: Inhibition constant of compound with kidney (M-2) form of rat methionine adenosyltransferase when ATP was used as variable substrate;Competitive type of inhibition
[3] = target: T1, S-adenosylmethionine synthetase (MAT 1 and MAT 2); test: Inhibition constant of compound with kidney (M-2) form of rat methionine adenosyltransferase when methionine was used as variable substrate;Simple non-competitive type of inhibition
[4] = target: T1, S-adenosylmethionine synthetase (MAT 1 and MAT 2); test: Inhibition constant of compound with Novikoff ascitic hepatoma (M-T) form of rat methionine adenosyltransferase when methionine was used as variable substrate;Simple non-competitive type of inhibition

Row | Ki [1] [µM] | Ki [2] [µM] | Ki [3] [µM] | Ki [4] [µM] | SMILES
1 | 20 |  |  |  | Nc1ncnc2c1ncn2[C@@H]1O[C@H]([C@@H](CNP(=O)(O)OP(=O)(O)OP(=O)(O)O)SCCC(N)C(=O)O)[C@@H](O)[C@H]1O (some centres undefined)
2 |  | 14 | 580 |  | Nc1ncnc2c1ncn2C1O[C@H](CCNP(=O)(O)OP(=O)(O)OP(=O)(O)O)[C@@H](O)[C@H]1O (some centres undefined)
3 | 0.27 | 0.36 | 3 | 2.3 | Nc1ncnc2c1ncn2C1O[C@H]([C@H](CNP(=O)(O)OP(=O)(O)OP(=O)(O)O)SCCC(N)C(=O)O)[C@@H](O)[C@H]1O (some centres undefined)
4 |  | 39 |  |  | Nc1ncnc2c1ncn2[C@@H]1O[C@H](C(CP(=O)(O)OP(=O)(O)OP(=O)(O)O)SCCC(N)C(=O)O)[C@@H](O)[C@H]1O (single isomer, unassigned; isomer A)
5 |  | 180 |  |  | Nc1ncnc2c1ncn2[C@@H]1O[C@H](C(CP(=O)(O)OP(=O)(O)OP(=O)(O)O)SCCC(N)C(=O)O)[C@@H](O)[C@H]1O (single isomer, unassigned; isomer B)
